Measurements taken from patent US20250122173A1, “MODULATORS OF RHO-ASSOCIATED PROTEIN KINASE” (Redx Pharma Limited, priority 2022, published 2025).

How the values were obtained:
ROCK1 = ROCK1 (Homo sapiens, UniProt Q13464); assay: ROCK1 inhibition assay (ROCK1 binding activity, as determined by the assay described for ROCK2); assay type: biochemical; conditions: read-out: ROCK 1 (IC50 category)
Procedure, shortened: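 Run under the conditions used for ROCK2: 1 h compound–kinase preincubation, then 1 h reaction with 100 μM long S6 peptide and 20 μM ATP in 50 mM HEPES pH 7.5, 1% DMSO. ADP quantified by ADP-Glo luminescence; IC50 from four-parameter logistic fit, reported in potency categories.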

ROCK2 = biological target: T1, ROCK2 (Homo sapiens, UniProt O75116); assay: ROCK2 inhibition assay (ADP-Glo kinase assay, called ROCK2 binding activity); assay type: biochemical; conditions: 20 μM ATP, 1 hour pre-incubation, read-out: ROCK 2 (IC50 category)
T1 construct: N-terminal 6His-tagged ROCK2 catalytic domain 11-552; 6His (N); purchased Dundee University, UK; host or cells: baculovirus expression system
Procedure, shortened: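 N-terminal 6His ROCK2 catalytic domain (11-552, baculovirus-expressed; 1.25 nM) was pre-incubated with compound for 1 h (1% DMSO, HEPES pH 7.5). Reaction then ran 1 h with 100 μM long S6 peptide and 20 μM ATP. ADP was quantified by ADP-Glo luminescence, and IC50 was derived from a four-parameter logistic fit and reported in potency bins.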

T1 sequence (O75116 11-552): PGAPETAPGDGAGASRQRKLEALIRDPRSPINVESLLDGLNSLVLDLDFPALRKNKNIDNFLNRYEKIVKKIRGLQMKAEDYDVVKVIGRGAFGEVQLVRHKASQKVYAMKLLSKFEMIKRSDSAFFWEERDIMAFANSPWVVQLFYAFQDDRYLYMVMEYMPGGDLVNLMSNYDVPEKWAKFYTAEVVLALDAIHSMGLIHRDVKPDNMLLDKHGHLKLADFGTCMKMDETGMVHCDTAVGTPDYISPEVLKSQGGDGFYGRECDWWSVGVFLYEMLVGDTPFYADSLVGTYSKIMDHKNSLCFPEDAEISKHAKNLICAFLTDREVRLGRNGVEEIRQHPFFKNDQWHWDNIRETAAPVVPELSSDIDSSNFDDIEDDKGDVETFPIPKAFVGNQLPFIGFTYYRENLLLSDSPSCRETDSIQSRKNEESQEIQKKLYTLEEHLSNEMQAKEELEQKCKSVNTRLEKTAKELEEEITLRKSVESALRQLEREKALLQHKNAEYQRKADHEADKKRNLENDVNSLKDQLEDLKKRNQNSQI
Chain of ROCK1 (Q13464 whole entry): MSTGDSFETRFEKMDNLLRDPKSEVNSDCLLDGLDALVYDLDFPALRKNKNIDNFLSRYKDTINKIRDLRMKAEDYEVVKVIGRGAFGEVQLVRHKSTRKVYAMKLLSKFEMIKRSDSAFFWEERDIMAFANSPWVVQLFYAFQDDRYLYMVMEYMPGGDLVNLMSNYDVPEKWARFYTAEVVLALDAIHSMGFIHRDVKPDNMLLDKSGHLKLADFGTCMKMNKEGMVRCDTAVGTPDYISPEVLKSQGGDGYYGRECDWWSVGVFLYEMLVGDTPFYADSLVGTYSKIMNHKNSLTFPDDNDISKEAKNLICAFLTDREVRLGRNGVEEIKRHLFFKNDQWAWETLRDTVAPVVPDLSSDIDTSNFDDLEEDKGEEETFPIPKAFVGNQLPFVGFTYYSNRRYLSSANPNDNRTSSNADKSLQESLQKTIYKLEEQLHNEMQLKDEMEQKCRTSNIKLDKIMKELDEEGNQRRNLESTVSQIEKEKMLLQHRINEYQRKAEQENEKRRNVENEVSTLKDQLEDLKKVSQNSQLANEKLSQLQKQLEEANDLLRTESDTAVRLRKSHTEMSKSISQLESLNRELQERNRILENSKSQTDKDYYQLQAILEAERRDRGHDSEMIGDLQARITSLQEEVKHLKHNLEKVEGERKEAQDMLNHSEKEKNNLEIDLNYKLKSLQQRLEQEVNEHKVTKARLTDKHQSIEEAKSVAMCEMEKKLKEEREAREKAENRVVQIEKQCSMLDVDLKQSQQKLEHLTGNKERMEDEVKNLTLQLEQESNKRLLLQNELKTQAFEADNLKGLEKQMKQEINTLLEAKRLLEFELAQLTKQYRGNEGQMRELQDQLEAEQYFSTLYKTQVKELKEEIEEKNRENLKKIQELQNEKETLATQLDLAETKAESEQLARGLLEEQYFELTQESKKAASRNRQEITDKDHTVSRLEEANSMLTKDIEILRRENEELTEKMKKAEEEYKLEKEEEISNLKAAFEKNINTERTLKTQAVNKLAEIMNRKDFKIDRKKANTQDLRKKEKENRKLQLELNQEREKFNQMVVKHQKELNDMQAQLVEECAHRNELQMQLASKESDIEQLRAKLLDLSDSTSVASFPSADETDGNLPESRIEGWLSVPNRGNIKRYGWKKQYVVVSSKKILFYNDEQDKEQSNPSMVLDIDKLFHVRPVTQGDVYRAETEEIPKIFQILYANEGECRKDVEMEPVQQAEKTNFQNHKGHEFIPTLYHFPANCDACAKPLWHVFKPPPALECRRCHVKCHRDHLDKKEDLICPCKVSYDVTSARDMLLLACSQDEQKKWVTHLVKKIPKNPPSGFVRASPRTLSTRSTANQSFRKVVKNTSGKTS

Row | Compound | IC50 (ROCK1) [µM] | IC50 (ROCK2) [µM]
1 | CCn1nc(-c2ccc(C3CCCN(C)C3)c(C)c2)nc1Nc1cc2c(cc1C)C(=O)NC2C (stereo not drawn) [Example 140] | > 10 | > 10
2 | CCn1nc(-c2ccc(-c3ccn(C)c3)c(C)c2)nc1Nc1cc2c(cc1C)C(=O)NC2C (stereo not drawn) [Example 129] | 3 to 10 | < 0.3
3 | CCn1nc(-c2ccc(-c3ccc(C)nc3)nc2)nc1Nc1ccc2c(c1)C(C)NC2=O (stereo not drawn) [Example 110] | > 10 | < 0.3
4 | CCn1nc(-c2ccc(-c3ccc(C4CC4)nc3)cc2F)nc1Nc1ccc2c(c1)C(C)NC2=O (stereo not drawn) [Example 74] | 3 to 10 | < 0.3
5 | CCn1nc(-c2ccc(-c3ccc(C4CC4)nc3)c(F)c2)nc1Nc1cc2c(cc1F)C(=O)NC2C (stereo not drawn) [Example 85] | > 10 | < 0.3
6 | CCn1nc(-c2ccc(-c3ccc(C4CC4)nc3)c(F)c2)nc1Nc1ccc2c(c1)CNC2=O [Example 37] | > 10 | < 0.3
7 | CCn1nc(-c2ccc(C3=CCNCC3)cc2)nc1Nc1ccc2c(c1)CNC2=O [Example 67] | 3 to 10 | 3 to 10
8 | CCn1nc(-c2ccc(C3CCNCC3)cc2)nc1Nc1ccc2c(c1)CNC2=O [Example 54] | > 10 | 3 to 10
9 | CCn1nc(-c2ccc(-n3cnc(C4CC4)c3)c(C)c2)nc1Nc1cc2c(cc1C)C(=O)NC2C (stereo not drawn) [Example 59] | 3 to 10 | < 0.3
10 | CCn1nc(-c2ccc(-c3cnn(CC(F)(F)F)c3)cc2C)nc1Nc1cc2c(cc1C)C(=O)NC2C (stereo not drawn) [Example 153] | 0.3 to 3 | < 0.3
11 | CCn1nc(-c2ccc(-c3ccc(C)cn3)cc2)nc1Nc1cc2c(cc1C)C(=O)NC2C (stereo not drawn) [Example 104] | 3 to 10 | < 0.3
12 | CCn1nc(-c2ccc(-c3ccc(C)nc3)c(C)c2)nc1Nc1ccc2c(c1)C(C)NC2=O (stereo not drawn) [Example 72] | > 10 | < 0.3
13 | Cn1nc(-c2ccc(-n3cnc(C4CC4)c3)cc2)nc1Nc1ccc2c(c1)C(C)(C)NC2=O [Example 16] | > 10 | < 0.3
14 | CCn1nc(-c2ccc(-c3ccc(C)nc3)c(OC)c2)nc1Nc1ccc2c(c1)CNC2=O [Example 36] | < 0.3 | < 0.3
15 | CCn1nc(-c2ccc(-c3ccc(C4CC4)cn3)nc2)nc1Nc1cc2c(cc1C)C(=O)NC2C (stereo not drawn) [Example 137] | 0.3 to 3 | < 0.3
16 | CCn1nc(-c2ccc(-n3cnc(C4CC4)c3)cc2C)nc1Nc1cc2c(cc1C)C(=O)N[C@@H]2C [Example 158] | 3 to 10 | < 0.3
17 | CCn1nc(-c2ccc(-c3ccc(C)nc3)cc2)nc1Nc1ccc2c(c1)C1(CC1)NC2=O [Example 69] | > 10 | < 0.3
18 | CCn1nc(-c2ccc(-c3ccc(C4CC4)nc3)c(C)c2)nc1Nc1ccc2c(c1)C(C)NC2=O (stereo not drawn) [Example 66] | > 10 | < 0.3
19 | CCn1nc(-c2ccc(-c3cc(C)c(C)cn3)c(C)c2)nc1Nc1cc2c(cc1C)C(=O)NC2C (stereo not drawn) [Example 91] | 3 to 10 | < 0.3
20 | CCn1nc(-c2ccc(C3CCN(C)CC3)cc2C)nc1Nc1cc2c(cc1C)C(=O)NC2C (stereo not drawn) [Example 128] | > 10 | > 10
21 | CCn1nc(-c2ccc(C3CCN(CC(F)(F)F)C3)c(C)c2)nc1Nc1cc2c(cc1C)C(=O)NC2C (stereo not drawn) [Example 138] | > 10 | < 0.3

Row | Compound | IC50 (ROCK1) [µM] | IC50 (ROCK2) [µM]
22 | CCn1nc(-c2ccc(C3=CCN(C)CC3)cc2)nc1Nc1cc2c(cc1C)C(=O)NC2C (stereo not drawn) [Example 116] | > 10 | 3 to 10
23 | CCn1nc(-c2ccc(-c3ccc(C)nc3)c(C(=O)OC)c2)nc1Nc1cc2c(cc1C)C(=O)NC2C (stereo not drawn) [Example 115] | > 10 | < 0.3
24 | CCn1nc(-c2ccc(-n3cnc(C4CC4)c3)cc2)nc1Nc1ccc2c(c1)CNC2=O [Example 24] | 3 to 10 | < 0.3
25 | CCn1nc(-c2ccc(-c3ccc(C4CC4)nc3)cc2)nc1Nc1cc2c(cc1F)C(=O)N[C@@H]2C [Example 160] | 3 to 10 | < 0.3
26 | CCn1nc(-c2ccc(C3=CCN(CC(F)(F)F)C3)c(C)c2)nc1Nc1cc2c(cc1C)C(=O)NC2C (stereo not drawn) [Example 118] | > 10 | < 0.3
27 | CCn1nc(-c2ccc(-c3ccc(C)nc3)c(C(C)(C)O)c2)nc1Nc1cc2c(cc1C)C(=O)NC2C (stereo not drawn) [Example 119] | > 10 | 0.3 to 3
28 | CCn1nc(-c2ccc(-c3ccc(C)nc3)cc2F)nc1Nc1cc2c(cc1C)C(=O)NC2C (stereo not drawn) [Example 132] | 3 to 10 | < 0.3
29 | CCn1nc(-c2ccc(-c3ccc(C)nc3)cc2)nc1Nc1cc2c(cc1C)C(=O)NC2C (single isomer, unassigned) [Example 84] | 3 to 10 | < 0.3
30 | CCn1nc(-c2ccc(-c3ccccn3)cc2)nc1Nc1ccc2c(c1)CNC2=O [Example 28] | 3 to 10 | < 0.3
31 | CCn1nc(-c2ccc(-c3cnc(C4CC4)n3C)cc2)nc1Nc1ccc2c(c1)CNC2=O [Example 25] | 3 to 10 | < 0.3
32 | CCn1nc(-c2ccc(-c3ccc(C4CC4)nc3)cc2)nc1Nc1ccc2c(c1)CNC2=O [Example 20] | 3 to 10 | < 0.3
33 | CCn1nc(-c2ccc(C3=CCNC3)cc2)nc1Nc1ccc2c(c1)CNC2=O [Example 68] | > 10 | 3 to 10
34 | CCn1nc(-c2ccc(-n3cnc(C4CC4)c3)c(F)c2)nc1Nc1ccc2c(c1)C(C)NC2=O (stereo not drawn) [Example 86] | 3 to 10 | < 0.3
35 | CCn1nc(-c2ccc(C3=CCN(C)CC3)cc2C)nc1Nc1cc2c(cc1C)C(=O)NC2C (stereo not drawn) [Example 117] | > 10 | 0.3 to 3
36 | CCn1nc(-c2ccc(-n3cnc(C4CC4)c3)c(C)c2)nc1Nc1ccc2c(c1)C(C)NC2=O (stereo not drawn) [Example 76] | 3 to 10 | < 0.3
37 | CCn1nc(-c2ccc(-c3cnc(C4CC4)n3C)cc2)nc1Nc1ccc2c(c1C)CNC2=O [Example 11] | > 10 | 3 to 10
38 | CCn1nc(-c2ccc(-c3ccc(C)nc3)c(C)c2)nc1Nc1ccc2c(c1)C1(CC1)NC2=O [Example 51] | > 10 | < 0.3
39 | CCn1nc(-c2ccc(-c3ccc(C4CC4)nc3)c(C)c2)nc1Nc1cc2c(cc1C)C(=O)NC2C (stereo not drawn) [Example 48] | 3 to 10 | < 0.3
40 | CCn1nc(-c2ccc(-c3ccn(CC(F)(F)F)c3)cc2)nc1Nc1cc2c(cc1C)C(=O)NC2C (stereo not drawn) [Example 124] | 3 to 10 | < 0.3
41 | CCn1nc(-c2ccc(-c3ccc(C)nc3)cc2C)nc1Nc1cc2c(cc1F)C(=O)NC2C (stereo not drawn) [Example 149] | > 10 | < 0.3
42 | CCn1nc(-c2ccc(-c3ccc(C4CC4)nc3)cc2)nc1Nc1cc2c(cc1F)C(=O)NC2C (stereo not drawn) [Example 130] | 3 to 10 | < 0.3
